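Cultured in 96-well plates, cells were exposed to test compound for 48 hours across five concentrations. At the TGI there is no net growth.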
What was measured:
Assay in all cases: NCI anticancer screen, dose series, 48 h
A498 renal = system: A498 renal
A549 NSCLC = system: A549 NSCLC
ACHN renal = system: ACHN renal
BT-549 breast = system: BT-549 breast
CAKI-1 renal = system: CAKI-1 renal
CCRF-CEM leukemia = system: CCRF-CEM leukemia
COLO 205 colon = system: COLO 205 colon
DU-145 prostate = system: DU-145 prostate
EKVX NSCLC = system: EKVX NSCLC
HCC-2998 colon = system: HCC-2998 colon
HCT-116 colon = system: HCT-116 colon
HCT-15 colon = system: HCT-15 colon
HL-60(TB) leukemia = system: HL-60(TB) leukemia
HOP-62 NSCLC = system: HOP-62 NSCLC
HOP-92 NSCLC = system: HOP-92 NSCLC
HS 578T breast = system: HS 578T breast
HT29 colon = system: HT29 colon
IGROV1 ovarian = system: IGROV1 ovarian
K-562 leukemia = system: K-562 leukemia
KM12 colon = system: KM12 colon
LOX IMVI melanoma = system: LOX IMVI melanoma
M14 melanoma = system: M14 melanoma
MALME-3M melanoma = system: MALME-3M melanoma
MCF7 breast = system: MCF7 breast
MDA-MB-231 breast = system: MDA-MB-231 breast
MDA-MB-435 = system: MDA-MB-435
MDA-N = system: MDA-N
MOLT-4 leukemia = system: MOLT-4 leukemia
NCI-H23 lung = system: NCI-H23 lung
NCI-H460 lung = system: NCI-H460 lung
NCI-H522 lung = system: NCI-H522 lung
NCI/ADR-RES ovarian = system: NCI/ADR-RES ovarian
OVCAR-3 ovarian = system: OVCAR-3 ovarian
OVCAR-4 ovarian = system: OVCAR-4 ovarian
OVCAR-5 ovarian = system: OVCAR-5 ovarian
OVCAR-8 ovarian = system: OVCAR-8 ovarian
PC-3 prostate = system: PC-3 prostate
RPMI-8226 leukemia = system: RPMI-8226 leukemia
RXF 393 renal = system: RXF 393 renal
SF-268 CNS = system: SF-268 CNS
SF-295 CNS = system: SF-295 CNS
SF-539 CNS = system: SF-539 CNS
SK-MEL-2 melanoma = system: SK-MEL-2 melanoma
SK-MEL-28 melanoma = system: SK-MEL-28 melanoma
SK-MEL-5 melanoma = system: SK-MEL-5 melanoma
SK-OV-3 ovarian = system: SK-OV-3 ovarian
SN12C renal = system: SN12C renal
SNB-19 CNS = system: SNB-19 CNS
SNB-75 CNS = system: SNB-75 CNS
SW-620 colon = system: SW-620 colon
T-47D breast = system: T-47D breast
TK-10 renal = system: TK-10 renal
U251 CNS = system: U251 CNS
UACC-257 melanoma = system: UACC-257 melanoma
UACC-62 melanoma = system: UACC-62 melanoma
UO-31 renal = system: UO-31 renal
786-0 renal = system: 786-0 renal
NCI-H226 lung = system: NCI-H226 lung

C=CC[N+]12CN3CN(CN(C3)C1)C2
TGI (A498 renal): 94.1 µM | TGI (A549 NSCLC): > 100 µM | TGI (ACHN renal): 46 µM | TGI (BT-549 breast): 61.3 µM | TGI (CAKI-1 renal): 37.1 µM | TGI (CCRF-CEM leukemia): 30.3 µM | TGI (COLO 205 colon): 65.9 µM | TGI (DU-145 prostate): 46.9 µM | TGI (EKVX NSCLC): 46.4 µM | TGI (HCC-2998 colon): 55.8 µM | TGI (HCT-116 colon): 58.2 µM | TGI (HCT-15 colon): 50.9 µM | TGI (HL-60(TB) leukemia): > 100 µM | TGI (HOP-62 NSCLC): > 100 µM | TGI (HOP-92 NSCLC): 46.9 µM | TGI (HS 578T breast): > 100 µM | TGI (HT29 colon): 42.8 µM | TGI (IGROV1 ovarian): 66.4 µM | TGI (K-562 leukemia): > 100 µM | TGI (KM12 colon): 66.8 µM | TGI (LOX IMVI melanoma): 83 µM | TGI (M14 melanoma): 82.3 µM | TGI (MALME-3M melanoma): 45.2 µM | TGI (MCF7 breast): > 100 µM | TGI (MDA-MB-231 breast): 91.3 µM | TGI (MDA-MB-435): 37.4 µM | TGI (MDA-N): 35.5 µM | TGI (MOLT-4 leukemia): 57.5 µM | TGI (NCI-H23 lung): 52.8 µM | TGI (NCI-H460 lung): 54.7 µM | TGI (NCI-H522 lung): 34.9 µM | TGI (NCI/ADR-RES ovarian): 62.7 µM | TGI (OVCAR-3 ovarian): > 100 µM | TGI (OVCAR-4 ovarian): 52.9 µM | TGI (OVCAR-5 ovarian): 95.5 µM | TGI (OVCAR-8 ovarian): 57.6 µM | TGI (PC-3 prostate): > 100 µM | TGI (RPMI-8226 leukemia): 39 µM | TGI (RXF 393 renal): 38 µM | TGI (SF-268 CNS): 72.3 µM | TGI (SF-295 CNS): > 100 µM | TGI (SF-539 CNS): 40.6 µM | TGI (SK-MEL-2 melanoma): > 100 µM | TGI (SK-MEL-28 melanoma): 55.5 µM | TGI (SK-MEL-5 melanoma): > 100 µM | TGI (SK-OV-3 ovarian): > 100 µM | TGI (SN12C renal): 60.2 µM | TGI (SNB-19 CNS): > 100 µM | TGI (SNB-75 CNS): 48.1 µM | TGI (SW-620 colon): > 100 µM | TGI (T-47D breast): 76.5 µM | TGI (TK-10 renal): 45.4 µM | TGI (U251 CNS): > 100 µM | TGI (UACC-257 melanoma): 61.7 µM | TGI (UACC-62 melanoma): 80.2 µM | TGI (UO-31 renal): 43.7 µM

Nc1c2c(=O)[nH]c(=O)c2c(N)c2c(=O)c3ccccc3c(=O)c12
TGI (786-0 renal): 10.9 µM | TGI (A498 renal): 2.85 µM | TGI (A549 NSCLC): > 23.1 µM | TGI (ACHN renal): 9.79 µM | TGI (BT-549 breast): 3.71 µM | TGI (CAKI-1 renal): 22.9 µM | TGI (CCRF-CEM leukemia): > 26.7 µM | TGI (COLO 205 colon): 1.85 µM | TGI (DU-145 prostate): 3.95 µM | TGI (EKVX NSCLC): 9.55 µM | TGI (HCC-2998 colon): > 63.3 µM | TGI (HCT-116 colon): > 100 µM | TGI (HCT-15 colon): 3.19 µM | TGI (HL-60(TB) leukemia): > 100 µM | TGI (HOP-62 NSCLC): 6.85 µM | TGI (HOP-92 NSCLC): 51.9 µM | TGI (HS 578T breast): > 25.9 µM | TGI (HT29 colon): 2.83 µM | TGI (IGROV1 ovarian): 10.8 µM | TGI (K-562 leukemia): > 45.9 µM | TGI (KM12 colon): 7.56 µM | TGI (M14 melanoma): 0.88 µM | TGI (MALME-3M melanoma): 0.581 µM | TGI (MCF7 breast): 2.72 µM | TGI (MDA-MB-231 breast): > 29.5 µM | TGI (MDA-MB-435): 2.46 µM | TGI (MDA-N): 0.448 µM | TGI (MOLT-4 leukemia): > 26.4 µM | TGI (NCI-H226 lung): 4.96 µM | TGI (NCI-H23 lung): 3.17 µM | TGI (NCI-H460 lung): 2.52 µM | TGI (NCI-H522 lung): 13.5 µM | TGI (NCI/ADR-RES ovarian): 5.9 µM | TGI (OVCAR-3 ovarian): 4.31 µM | TGI (OVCAR-4 ovarian): 3.39 µM | TGI (OVCAR-5 ovarian): 3.42 µM | TGI (OVCAR-8 ovarian): 5.82 µM | TGI (PC-3 prostate): > 36.6 µM | TGI (RPMI-8226 leukemia): 8.53 µM | TGI (RXF 393 renal): 35.6 µM | TGI (SF-268 CNS): 15.5 µM | TGI (SF-295 CNS): 3.07 µM | TGI (SF-539 CNS): 4.52 µM | TGI (SK-MEL-2 melanoma): 6.2 µM | TGI (SK-MEL-28 melanoma): 3.98 µM | TGI (SK-MEL-5 melanoma): 0.394 µM | TGI (SK-OV-3 ovarian): 32.9 µM | TGI (SN12C renal): 3.17 µM | TGI (SNB-19 CNS): > 57.4 µM | TGI (SW-620 colon): 4.65 µM | TGI (T-47D breast): > 49.6 µM | TGI (TK-10 renal): 40.7 µM | TGI (U251 CNS): > 90 µM | TGI (UACC-257 melanoma): 3.17 µM | TGI (UACC-62 melanoma): 3.25 µM | TGI (UO-31 renal): 31.1 µM

— PubChem BioAssay (NCI)
